Measured values published in patent US20160340659A1, “ACTIN BINDING PEPTIDES AND COMPOSITIONS COMPRISING SAME FOR INHIBITING ANGIOGENESIS AND TREATING MEDICAL CONDITIONS ASSOCIATED WITH SAME” (YISSUM RESEARCH AND DEVELOPMENT COMPANY OF THE HEBREW …, priority 2014, published 2016).
Marks after values point to notes of the source that are not given here. Where no end group is shown, it is not given here.

Experiments:
[1] = molecular target: T1, G-Actin from rabbit muscle (Oryctolagus cuniculus, UniProt P68135); assay: ELISA actin binding assay (solid-phase, immobilized actin); conditions: immobilized G-actin 500 ng/well
T1 construct: G-Actin from rabbit muscle; purchased Sigma-Aldrich, St Louis, Mo; host or cells: rabbit muscle (tissue-derived)
Protocol: Peptides corresponding to a variety of amino acid sequences in the region of human RNASET2 comprising helix 5 and helix 6 were synthesized and assayed for actin binding in an ELISA actin binding assay.
Solid-phase ELISA for RNASET2 peptide binding to immobilized actin was performed as modified from Mejean 1987 (Biochem. J. 244: 571-577) and Mejean 1992 (Eur. J Biochem. 209: 555-562). All steps were conducted at 37° C. Immuno-96 Microwell™ solid plates (Thermo Fisher Scientific, MA) coated with 500 ng/well of G-Actin from rabbit muscle (Sigma-Aldrich, St Louis, Mo.) in 100 ul of 0.05 M carbonate buffer, pH 9.5 (Sigma-Aldrich, Mo), incubated for 1 h and washed with 250 ul/well Tris Buffered Saline (TBS) (Sigma-Aldrich). The wells were blocked with 3% bovine serum albumin (BSA, Sigma-Aldrich) in 200 ul/well TBS for another 1 hour and washed with 250 ul/well TBS. The candidate peptides are then added at various concentrations (for example, serial dilutions giving 500, 250 or 125 ng/well) in 100 ul/well Tris Buffered Saline (TBS), incubated for 1 hour and washed 3 times with 250 ul/well TBS containing 0.05% Tween®20 (TBST, Sigma-Aldrich). Anti-T2 RNase (rabbit anti-rhtrRNASET2, Anilab, Israel, whole serum or antiserum) was then added, incubated for 1 hour and the plates washed 3 times with 250 ul/well TBST. Labeled second antibody [peroxidase-conjugated affinity pure goat-anti rabbit IgG (Jackson, Pa.)] was added at a dilution of 1:10:000 in 100 ul/well TBS, incubated for 1 hour and the plates washed twice with 250 ul/well TBST. After an additional wash with 250 ul/well TBS, 1-Step Ultra TMB-ELISA (TMB-3,3′,5,5′ Tetramethylbenzidine) (Thermo-Scientific) was added (100 ul/well) and after 15-25 min of incubation, the reaction was read at A650 using Infinite F50-TECAN ELISA READER (TECAN, Austria). Each assay was performed in triplicates.

[2] = tested on: HUVEC; assay: HUVEC tube formation assay on Matrigel; assay type: cell-based, human; conditions: peptides at 2 μM, compared to Control; for inhibition of VEGF-induced tube formation: 1 μg/ml VEGF; for inhibition of angiogenin-induced tube formation: 1 μg/ml angiogenin
Protocol: FIGS. 6A-6D illustrate in-vitro inhibition of angiogenesis in the HUVEC model by T2 peptides. HUVEC cells plated on Matrigel™ were exposed to 2 μM of T2 peptides A103-Q159 (SEQ ID NO: 60), K108-K133 (SEQ ID NO: 57) or K108-L123 (SEQ ID NO: 67), in addition to 1 μg/ml of angiogenin or VEGF as the angiogenic agent, as indicated. Control wells received PBS. FIG. 6B-Results were assessed by imaging software, and quantified, and expressed relative to tube formation with angiogenin or VEGF alone (100%) Column 1=angiogenin, column 2=angiogenin+SEQ ID NO: 60, column 3=angiogenin+SEQ ID NO: 57, column 4=angiogenin+[…], Column 5=VEGF, column 6=VEGF+SEQ ID NO: 60, column 7=VEGF+SEQ ID NO: 57, column 8=VEGF+[…]. FIGS. 6C and 6D illustrate the inhibitory effect of truncated human T2 polypeptide trT2-49m (SEQ ID NO: 129) on angiogenin and VEGF induced HUVEC tube formation. Note the significant inhibition of HUVEC tube formation by all of the T2 peptides assayed, and in particular, K108-K133 (SEQ ID NO: 57);
HUVEC (CC-2519)(fresh or commercially provided) are maintained in M199 rrrediurn supplemented with 20% FCS, 1% glutamine, 1% antibiotic-antimycotic solution, ECGF, and heparin, plated in a 96-well plate (14×10^3 cells/well) previously coated with growth factor-depleted Matrigel™ (BD Biosciences), in M199 medium containing 5% FCS and 0.005% ECGF. The wells are supplemented with candidate T2 RNase peptides or PBS, and angiogenic growth factors (1 μg/ml angiogenin, bFGF or VEGF) to a final volume of 120 pl. Plates are incubated (overnight), photographed and the extent of tube formation (angiogenesis) assessed.

[3] = tested on: Super metastatic A375SM cells; assay: A375SM xenograft tumor model in athymic nude mice; assay type: in vivo, mouse; conditions: for Tumor Weight: excised tumors at end
Protocol: Female Hds-athymic nude mice (Harlan, Rehovot, Israel) were housed in laminar flow cabinets under specific pathogen-free conditions. Experiments were performed on mice at 7-8 weeks of age. The Animals were maintained in facilities approved by the Ethics Committee for Animal Experimentation, The Israeli Ministry of Health.
Subcutaneous tumors were produced by injecting 2.5×10^5 Super metastatic A375SM cells (single-cell suspensions, >95% viability by a trypan blue exclusion test) in 0.2 ml of Hanks' buffered salt solution into the left flank of each mouse. Tumor growth was recorded three times weekly with a caliper and calculated as a×b^2/2 cm^3 (a, long diameter; b, short diameter). Treatments commenced when tumors arrived to about 100 mm^3 volumes, as follows (iv=intravenous; it=intra-tumor, direct injection, q3×6=three times per week for six weeks, […]):
Each group comprised 10 mice. At the end of experiment, tumors were excised, weighed, and prepared for histopathological examination.
Sections from the excised tumors were examined for athological changes, using Hematoxylin-Eosin staining (nuclei stain blue) and FragEL™ TdT DNA Fragmentation Detection stain (Calbiochem, EMD Millipore, MA) for visualizing apoptotic nuclei.

[4] = 2.5 mg/kg intratumoral, three times per week
[5] = 2.5 mg/kg iv, three times per week
[6] = 5 mg/kg iv, three times per week

**Q.** With “ALNSQKKYFGRSLELYRELDLNSVLLKLGIKPSINYYQVADFKDALARVYGVIPKIQ [SEQ ID NO: 60]” as the sequence, how does the “actin binding on ELISA” value [1] read?
**A.** strong

**Q.** And the “inhibition of VEGF-induced tube formation” value [2]?
**A.** ~40%

**Q.** What about the “inhibition of angiogenin-induced tube formation” value [2] of the same sequence?
**A.** ~40%

**Q.** What does the source list for “KKYFGRSLELYRELDLNSVLLKLGIK [SEQ ID NO: 57, 26-amino acid peptide representing amino acids 108-133 of RNASET2]”?
**A.** actin binding on ELISA [1]: strong actin binding; tumor volume (tumor growth) ([3]; 2.5 mg/kg intra-tumor, three times per week, vs PBS control): Increasing inhibition of tumor growth; tumor apoptosis (FragEL stain of tumor sections) [3, 4]: abundant apoptosis; tumor vascular structures (H&E sections) [3, 4]: tumor cells can be seen accumulating towards the blood vessels; tumor apoptosis (FragEL stain of tumor sections) ([3]; 2.5 mg/kg iv, daily): heightened apoptosis; tumor vascular structures (H&E sections) ([3]; 2.5 mg/kg iv, daily): significant disruption of tumor histology and vascular structures; tumor volume (tumor development) ([3]; 2.5 mg/kg iv, daily for six weeks, vs PBS control): increased the rate of tumor development; tumor apoptosis (FragEL stain of tumor sections) [3, 5]: abundant apoptotic cells; tumor vascular structures (H&E sections) [3, 5]: visible disruption of the endothelial structure; tumor volume (tumor development) ([3]; 2.5 mg/kg iv, three times per week for six weeks, vs PBS control): trend of increasing inhibition of tumor development; Tumor Weight ([3]; 2.5 mg/kg q7x6 iv): 3469 ± 648^a; tumor apoptosis (FragEL stain of tumor sections) [3, 6]: an increase in apoptotic rate; tumor vascular structures (H&E sections) [3, 6]: only partial disruption of the endothelial cell structures; tumor growth ([3]; 5 mg/kg iv, three times per week, vs PBS control): no visible significant effect on tumor growth; Tumor Weight ([3]; 5 mg/kg q3x6 iv): 1798 ± 385^b; tumor apoptosis (FragEL stain of tumor sections) ([3]; 7.5 mg/kg iv, three times per week): an increase in apoptotic rate; tumor vascular structures (H&E sections) ([3]; 7.5 mg/kg iv, three times per week, relative to PBS controls): A small, if any effect; tumor growth ([3]; 7.5 mg/kg iv, three times per week, vs PBS control): no visible significant effect on tumor growth; Tumor Weight ([3]; 7.5 mg/kg q3x6 iv): 1471 ± 418^b; inhibition of VEGF-induced tube formation [2]: ~75%; inhibition of angiogenin-induced tube formation [2]: ~50%
